Assay results taken from patent publication US6998394B2, “Process for isolating physalins from plants and pharmaceutical compositions containing physalins” (Fundacao Oswaldo Cruz - FIOCRUZ, priority 1999, dated 2006).
Converted amounts (≈) assume the structure as drawn.

What was measured:
[1] = test system: human tumors like hepatoma, cervix uteri, lung and colon cells; details: in vivo and in vitro tests; cited from earlier work
[2] = test system: trypomastigotes of Trypanosoma cruzi (Y strain); assay: In vitro antitrypanosomial activity against T. cruzi trypomastigotes (count of viable parasites); format: cell-based
Protocol: In vitro studies using pure physalins are carried out with trypomastigotes of Trypanosoma cruzi.
T. cruzi Y strain is maintained in MK2 strain cell culture in a RPMI medium+10% bovine fetal serum, at 37° C., under 5% CO2. This material is centrifuged during 15 minutes at 1500 rpm. Afterwards, the material is maintained in rest at 37° C. for 2 hours. The supernatant is centrifuged again during 30 minutes at 3000 rpm. The trypomastigotes (5×10^5/well) in RPMI medium with 10% bovine fetal serum and antibiotic are incubated in wells with different concentrations of physalin B or physalin D. After 24–48 hours, the viable parasites maintained at a temperature of 4° C. are counted. Each experiment was carried out in triplicate.

[3] = test system: TNFα production by macrophages; assay: TNFα production by LPS-stimulated peritoneal macrophages (ELISA); format: cell-based; details: LPS 500 ng/ml, various concentrations, supernatants 4 hours after stimulation, FIG. 3A
Protocol: (§1) In a first test, thyoglycollate-elicited peritoneal macrophages were stimulated with LPS (500 ng/ml) in the presence of various concentrations of physalin B. Cell-free supernatants were collected 4 hours after stimulation and tested for TNα and IL-6 production by ELISA.

[4] = test system: nitric oxide production by macrophages; assay: Nitric oxide (nitrite) production by stimulated peritoneal macrophages (Griess assay); format: cell-based; details: 24 hours
Protocol: as §1, with “second” for “first”, “ng/ml), IFNγ (5 ng/ml), or IFNγ +LPS” for “ng/ml)”, “24” for “4”, “nitrite” for “TNα and IL-6”, “Griess assay.” for “ELISA.”
In a third test, thyoglycollate-elicited peritoneal macrophages were stimulated with LPS (500 ng/ml)+IFNγ (5 ng/ml). Physalin B (2 μg/ml) was added 0, 2, 4 and 6 hours after IFNγ+LPS stimulation. Cell-free supernatants were collected 24 hours after stimulation and tested for nitrite production by Griess assay. IFNγ+LPS was used as control.
In a fourth test, thyoglycollate-elicited peritoneal macrophages were stimulated with LPS (500 ng/ml)+IFNγ (5 ng/ml) in the presence of physalin B (2 μg/ml) or indomethacyn (1 μg/ml). Cell-free supernatants were collected 24 hours after stimulation and tested for nitrite production by Griess assay.

[5] = test system: BALB/c spleen cells or thyoglycollate-elicited peritoneal macrophages; assay: Viability of spleen cells and peritoneal macrophages (MTT); format: cell-based; details: one day or three days of culturing, FIG. 9
Protocol: In the last test, BALB/c spleen cells or thyoglycollate-elicited peritoneal macrophages were cultured in the presence of several concentrations of physalin B. After one day (FIG. 9B) or three days (FIG. 9A) of culturing, plates were pulsed with MTT. Cell-viability was evaluated 2 hours later by optical density measuring at 570 nm.

[6] = test system: ConA stimulated splenocytes; assay: Proliferation of ConA-stimulated splenocytes (3H thymidine uptake); format: cell-based, BALB/c; details: ConA 1 μg/ml, several concentrations, FIG. 7
Protocol: In a fifth test, BALB/c spleen cells were stimulated with ConA (1 μg/ml) in the presence of several concentrations of physalin B. After 24 hours, cultures were pulsed with ^3H thymidine. Proliferation was assessed by measurement of thymidine uptake.

[7] = test system: IL-2 production by ConA stimulated splenocytes; assay: IL-2 production by ConA-stimulated splenocytes (ELISA); format: cell-based, BALB/c; details: ConA 1 μg/ml, several concentrations, 24 hours, FIG. 8
Protocol: In a sixth test, BALB/c spleen cells were stimulated with ConA (1 μg/ml) in the presence of several concentrations of physalin B. Cell-free supernatants were collected 24 hours after stimulation and tested for IL-2 production by ELISA.

[8] = test system: Leishmania amazonensis in peritoneal macrophages; assay: In vitro infection assay using peritoneal macrophages infected with Leishmania amazonensis; format: cell-based; details: 10 μg/ml
Protocol: Peritoneal macrophages were incubated during 2 hours at 37° C. in 24 wells plates with laminas. After washing to remove non-bound cells, the wells were incubated with stationary phase promastigotes of Leishmania amazonensis (parasites/macrophages in a ratio of 10:1). After 18 hours, the cultures were washed to remove the free parasites. After 24 hours, physalin B solution is added to the wells. The laminas are collected, fixed with methanol and dyed with Giemsa. The infection level was determined by counting parasite quantity and the infected macrophages percentage.

[9] = test system: IL-6 production by macrophages; assay: IL-6 production by LPS-stimulated peritoneal macrophages (ELISA); format: cell-based; details: LPS 500 ng/ml, various concentrations, supernatants 4 hours after stimulation, FIG. 3B
Protocol: as §1

[10] = test system: promastigotes of Leishmania amazonensis; assay: In vitro antileishmanicidal activity on promastigotes (MTT viability); format: cell-based; details: 20 μg/ml
Protocol: Stationary phase promastigotes of Leishmania amazonensis were obtained from parasite cultures in LIT medium with 10% bovine fetal serum. The assays were standardized in plates with 96 wells. Promastigotes were plaque harbored, in triplicate, in 100 μl of LIT medium. 10 μl of physalin B solution and 10 μl of a positive control (Amphotericin B) are added to the wells. Several dilutions were used. Parasite viability was determined after incubation with MTT by reading the absorbance at 570 nm in ELISA Microplate.

[11] = test system: Trypanosoma brucei rhodesiense; details: commonly used trypanocidal drug; cited from earlier work

## C=C1C(=O)O[C@@H]2C[C@@]1(C)[C@@H]1C(=O)[C@]3(O)O[C@]14[C@@]2(C)OC(=O)[C@@]4(O)CC[C@H]1[C@H]3[C@H](O)C=C2CC=CC(=O)[C@@]21C [physalin A]
[1]
  activity against human tumors: active

## C[C@]12C(=O)C=CCC1=CC[C@@H]1[C@@H]2CC[C@]2(O)C(=O)O[C@@]3(C)[C@H]4C[C@]5(C)[C@@H](CO[C@@]16O[C@@]32[C@H]5C6=O)C(=O)O4 [Physalin B]
[2]; dose 2.5 mg/ml, contact period 24 hours
  Mortality of Parasite (%): 100%
[2]; dose 2.5 mg/ml, contact period 48 hours
  Mortality of Parasite (%): 100%
[3]
  TNFα production by macrophages: inhibitory properties
[4]; 2 μg/ml added 0, 2, 4 and 6 hours after IFNγ+LPS stimulation, FIG. 5
  nitric oxide production, physalin B added at different times: time-dependence of the inhibition
[4]; LPS 500 ng/ml, IFNγ 5 ng/ml or IFNγ+LPS, various concentrations, FIG. 4
  nitric oxide production by macrophages: inhibitory properties
[4]; LPS+IFNγ, physalin B 2 μg/ml, indomethacyn 1 μg/ml, FIG. 6
  nitric oxide production in the presence of indomethacyn: addition of indomethacyn does not block the inhibition
[5]
  concentrations at which non-toxic in vitro (cell viability, MTT): below 5 μg/ml
[6]
  proliferation of ConA stimulated splenocytes (thymidine uptake): inhibits proliferation
[7]
  IL-2 production by ConA stimulated splenocytes: inhibits IL-2 production
[8]
  in vitro reduction in the infection of peritoneal macrophages: 100%
[9]
  IL-6 production by macrophages: inhibitory properties
[10]
  parasite mortality: 100%

## C[C@@]12C[C@H]3OC(=O)[C@@H]1CO[C@]14O[C@]5([C@H]2C1=O)[C@@](O)(CC[C@H]1[C@H]4C[C@H]2O[C@]24CC=CC(=O)[C@]14C)C(=O)O[C@@]35C [physalin F]
[1]
  activity against human tumors: active

## C[C@@H]1C(=O)O[C@@H]2C[C@@]1(C)C1C(=O)[C@]3(O)O[C@@]14[C@@](O)(CCC1C3[C@H](O)C=C3C=CCC(=O)[C@@]31C)C(=O)O[C@@]24C (stereo partly shown) [physalin L]
[1]
  activity against human tumors: active

## Cc1ccc(C(=O)Nc2ccc(S(=O)(=O)O)c3cc(S(=O)(=O)O)cc(S(=O)(=O)O)c23)cc1NC(=O)c1cccc(NC(=O)Nc2cccc(C(=O)Nc3cc(C(=O)Nc4ccc(S(=O)(=O)O)c5cc(S(=O)(=O)O)cc(S(=O)(=O)O)c45)ccc3C)c2)c1 [suramin]
[11]
  IC50: 0.0107 mg/L (≈ 8.25 nM)

## C[C@@]12C[C@H]3OC(=O)[C@@H]1CO[C@@]14O[C@]5([C@H]2C1=O)[C@@](O)(CC[C@H]1[C@H]4C[C@@H](O)[C@@]2(O)CC=CC(=O)[C@]12C)C(=O)O[C@@]35C [Physalin D]
[2]; dose 40 μg/ml, contact period 24 hours
  Mortality of Parasite (%): 100%
[2]; dose 40 μg/ml, contact period 48 hours
  Mortality of Parasite (%): 100%
[1]
  activity against human tumors: active
